Assay results reported in patent US11459338B2, “Heterocyclic compounds as PRMT5 inhibitors” (JUBILANT EPISCRIBE LLC, priority 2018, dated 2022).

How the values were obtained:
Z-138 cells = experiment: Z-138 long term proliferation assay (Cell Titer Glo); format: cell-based; conditions: Homo sapiens, 192 h; Z-138 cells, cell viability, day 8; read-out: PRMT5 Z138 GI50 Day 8 μM
Method: A compound source plate was prepared by performing ten-point 3-fold dilution in DMSO, such that the final top concentration of the compound was 10 μM, and DMSO was 0.3%. The total volume of compounds added was 20 μL. The cells were incubated for 96 h at 37° C., 5% CO2. […] The cells were re-treated with the compounds and incubated for an additional four days. Cell viability was measured on both day 4 and day 8, by adding 25 μL of Cell Titer Glo reagent to an equal volume of cell suspension. Luminescence was read on a PerkinElmer Victor3 multiplate reader. The concentration of compound inhibiting cell viability by 50% was determined using a 4-parameter, variable slope fit of the normalized dose response curves.

[1] = test system: Symmetric di-methyl arginine in Z-138 cells; experiment: Z-138 methylation assay, ELISA for detection of symmetric di-methyl arginine; format: cell-based; conditions: Homo sapiens; Z-138 cells, 96 h (day 4); read-out: PRMT5 Z138 SDMA ELISA Day 4 μM
Method: General reagents. […] Iscove's Modified Dulbecco's Medium (IMDM), Horse serum, penicillin-streptomycin, PBS and TMB-ELISA substrate solution were purchased from ThermoFisher Scientific. Symmetric di-methyl arginine antibody was purchased from Cell Signaling Technologies.Anti-SNRPD3/SmD3 antibody was purchased from Sigma-Aldrich.
ELISA for detection of Symmetric di-methyl arginine. […] A compound source plate was prepared by performing ten-point 3-fold dilution in DMSO, such that the final top concentration of the compound was 10 μM, and DMSO was 0.3%. The total volume of compounds added was 20 μL. The cells were incubated for 96 h at 37° C., 5% CO2. Z-138 cells were directly lysed in media with 3× Lysis Buffer (1×: 10 mM HEPES pH7.9, 5 mM MgCl2, 1M NaCl, 0.25M Sucrose, 1% Triton X-100, 1 mM PMSF, Protease & Phosphatase inhibitors). […] Plates were incubated at room temperature for a minimum of 3 h and then washed with PBS-Tween 20 (0.05%). The plates were blocked with 5% BSA at room temperature for 1 h, washed with PBS-Tween 20 and incubated with primary antibody at 4 C overnight.

PRMT5/MEP50 = molecular target: T1, PRMT5/MEP50 (Homo sapiens, UniProt O14744); experiment: PRMT5/MEP50 enzyme assay on peptide substrates (3H-SAM Flashplate); format: biochemical; conditions: PRMT5/MEP50 10 nM, H4 1-15aa peptide 100 nM, 3H-SAM 1 μM
T1 construct: Full-length human PRMT5 (NP_006100)
Excerpt: General materials like S-adenocylmethionine (SAM), S-adenosylhomocysteine (SAH), Tris-HCl, DTT, […] (BSA) and Tween-20 were purchased from Sigma-Aldrich. 3H-SAM and 384-well streptavidin Flashplates were purchased from Perkin Elmer. Substrates that were used were Peptide representative of human Histone 4 residues 1-15 which was purchased from Rockland antibodies and assays.
PRMT5/MEP50 Enzyme assay on Peptide Substrates.
The assays were all performed in a buffer consisting of 50 mMTris-HCl, pH 8, 1 mM DTT, 0.01% BSA, 0.01% Tween-20, prepared on the day of use. Test compounds were diluted 3-fold in assay buffer (final DMSO concentration of 1%) and added into a 384-well OptiPlate (PerkinElmer, #6007290). A cocktail (10 μL) of PRMT5/MEP50 enzyme and the peptide was added to the wells. The compounds were allowed to incubate with PRMT5/MEP50 for 30 min at room temperature, then 5 μL of ^3H-SAM was added to initiate the reaction. The final concentrations of the components were as follows: PRMT5/MEP50-10 nM, H4, 1-15aa peptide-100 nM, ^3H-SAM-1 μM. The assays were stopped by the addition of 1 mM SAH. 25 μL of the reaction from the 384-well OptiPlate was then transferred to a 384-well Flashplate and the biotinylated peptides were allowed to bind to the streptavidin surface for at least 1 h, before being washed twice with 50 mMTris-HCl, pH 8, 0.1% Tween-20. The plates were then read in a PerkinElmer Topcount plate reader to measure the quantity of ^3H-labeled peptide bound to the Flashplate surface measured as disintegrations per minute (dpm), also referred to as counts per minute (cpm).
The IC50 values were calculated using a 4-parameter variable slope fit algorithm (cpm—counts per minute, cmpd—signal in assay well, and cpmmax and cpmmin mare the respective minimum and maximum signal controls).

T1 sequence (O14744 whole entry): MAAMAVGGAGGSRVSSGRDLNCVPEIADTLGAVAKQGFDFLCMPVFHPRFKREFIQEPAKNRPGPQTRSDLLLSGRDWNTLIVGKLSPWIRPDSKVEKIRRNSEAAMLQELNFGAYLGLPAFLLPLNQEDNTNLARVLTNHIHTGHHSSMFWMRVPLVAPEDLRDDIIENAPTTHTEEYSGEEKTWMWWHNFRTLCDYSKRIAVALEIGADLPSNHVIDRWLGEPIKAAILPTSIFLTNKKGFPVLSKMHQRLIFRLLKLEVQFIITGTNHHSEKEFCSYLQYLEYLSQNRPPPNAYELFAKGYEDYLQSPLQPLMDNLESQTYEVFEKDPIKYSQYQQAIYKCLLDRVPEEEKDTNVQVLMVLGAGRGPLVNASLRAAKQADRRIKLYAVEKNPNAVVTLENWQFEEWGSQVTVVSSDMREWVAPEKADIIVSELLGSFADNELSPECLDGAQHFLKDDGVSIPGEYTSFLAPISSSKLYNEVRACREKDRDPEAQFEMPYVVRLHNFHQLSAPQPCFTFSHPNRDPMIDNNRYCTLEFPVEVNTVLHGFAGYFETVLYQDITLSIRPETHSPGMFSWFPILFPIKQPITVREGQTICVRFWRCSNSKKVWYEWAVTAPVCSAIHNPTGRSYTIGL
T1 sequence (Q9BQA1 whole entry partner): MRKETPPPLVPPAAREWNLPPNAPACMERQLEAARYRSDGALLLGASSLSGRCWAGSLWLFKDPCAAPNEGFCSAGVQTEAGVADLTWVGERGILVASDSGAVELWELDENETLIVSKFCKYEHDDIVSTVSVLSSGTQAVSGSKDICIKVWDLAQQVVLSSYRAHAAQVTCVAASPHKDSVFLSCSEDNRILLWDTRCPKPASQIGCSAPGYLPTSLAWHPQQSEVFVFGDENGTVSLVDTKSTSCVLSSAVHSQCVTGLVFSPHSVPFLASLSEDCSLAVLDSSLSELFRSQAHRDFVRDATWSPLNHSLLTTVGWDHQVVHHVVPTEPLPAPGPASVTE

| SMILES | IC50 [1] [µM] | IC50 (PRMT5/MEP50) [µM] | GI50 (Z-138 cells) [µM] |
| --- | --- | --- | --- |
| CCCC1CCn2cc(C(=O)NCC(O)CN3CCc4ccccc4C3)nc2C1 (centres unmarked) [Example 105, N-(3-(3,4-dihydroisoquinolin-2(1H)-yl)-2-hydroxypropyl)-7-propyl-5,6,7,8 tetrahydroimidazo[1,2-a]pyridine-2-carboxamide] | 0.01 to 1 |  | 1 to 5 |
| CN(C[C@H](O)CN1CCc2ccccc2C1)C(=O)c1cn2c(n1)CCC(C(F)(F)F)C2 (some centres unmarked) [Example 119] |  | 0.01 to 1 | 0.01 to 1 |
| O=C(NCC(O)CN1CCc2ccccc2C1)c1cn2c(n1)CCCC2 (centres unmarked) [Example 101, N-(3-(3,4-dihydroisoquinolin-2(1H)-yl)-2-hydroxypropyl)-5,6,7,8-tetrahydroimidazo[1,2-a]pyridine-2-carboxamide] |  | 1 to 5 | > 5 |
| CC(=O)N1CCC(C2CCc3nc(C(=O)NC[C@H](O)CN4CCc5ccccc5C4)cn3C2)CC1 (single isomer, unassigned) [Example 118A] |  | 0.01 to 1 | 0.01 to 1 |
| CN(C[C@H](O)CN1CCc2ccccc2C1)C(=O)c1cn2cc(-c3ccc(C#N)cc3)ncc2n1 [Example 95, (R)-6-(4-cyanophenyl)-N-(3-(3,4-dihydroisoquinolin-2(1H)-yl)-2-hydroxypropyl)-N-methylimidazo[1,2-a]pyrazine-2-carboxamide] |  | 0.01 to 1 | 0.01 to 1 |
| O=C(NC[C@H](O)CN1CCc2ccccc2C1)c1cn2cc(-c3noc(C4CC4)n3)ccc2n1 [Example 25, (S)-6-(5-cyclopropyl-1,2,4-oxadiazol-3-yl)-N-(3-(3,4-dihydroisoquinolin-2(1H)-yl)-2-hydroxypropyl)imidazo[1,2-a]pyridine-2-carboxamide] |  | 0.01 to 1 | 0.01 to 1 |
| O=C(NC[C@H](O)[C@@H](O)CN1CCc2ccccc2C1)c1cn2c(n1)CCC(C(F)(F)F)C2 (stereo partly drawn) [Example 117, N-((2S,3S)-4-(3,4-dihydroisoquinolin-2(1H)-yl)-2,3-dihydroxybutyl)-6-(trifluoromethyl)-5,6,7,8-tetrahydroimidazo[1,2-a]pyridine-2-carboxamide] |  | 0.01 to 1 | 0.01 to 1 |
| Cn1ccc(-c2cn3cc(C(=O)NC[C@H](O)CN4CCc5cc(F)ccc5C4)nc3cn2)cc1=O [Example 85, (S)—N-(3-(6-fluoro-3,4-dihydroisoquinolin-2(1H)-yl)-2-hydroxypropyl)-6-(1-methyl-2-oxo-1,2-dihydropyridin-4-yl)imidazo[1,2-a]pyrazine-2-carboxamide] |  | 1 to 5 | 1 to 5 |
| Cn1cc(-c2ccc3nc(C(=O)NC[C@H](O)CN4CCc5cc(F)ccc5C4)cn3c2)cn1 [Example 82, (S)—N-(3-(6-fluoro-3,4-dihydroisoquinolin-2(1H)-yl)-2-hydroxypropyl)-6-(1-methyl-1H-pyrazol-4-yl)imidazo[1,2-a]pyridine-2-carboxamide] |  | 1 to 5 | 1 to 5 |
| CC(=O)N1CCC(c2ccc3nc(C(=O)NC[C@H](O)CN4CCc5ccccc5C4)cn3n2)CC1 [Example 49, (S)-6-(1-acetylpiperidin-4-yl)-N-(3-(3,4-dihydroisoquinolin-2(1H)-yl)-2-hydroxypropyl)imidazo[1,2-b]pyridazine-2-carboxamide] |  | 0.01 to 1 | 0.01 to 1 |
| CN1CCN(c2ccc3nc(C(=O)NC[C@H](O)CN4CCc5ccccc5C4)cn3c2)CC1 [Example 71, (S)—N-(3-(3,4-dihydroisoquinolin-2(1H)-yl)-2-hydroxypropyl)-6-(4-methylpiperazin-1-yl)imidazo[1,2-a]pyridine-2-carboxamide] |  | 0.01 to 1 | 1 to 5 |
| CN(C[C@H](O)CN1CCc2ccccc2C1)C(=O)c1cn2cc(-c3ccc(=O)n(C)c3)ncc2n1 [Example 94, (R)—N-(3-(3,4-dihydroisoquinolin-2(1H)-yl)-2-hydroxypropyl)-N-methyl-6-(1-methyl-6-oxo-1,6-dihydropyridin-3-yl)imidazo[1,2-a]pyrazine-2-carboxamide] |  | 1 to 5 | 1 to 5 |
| Cn1ccc(-c2ccc3nc(C(=O)NCC(O)CNC4Cc5ccccc5C4)cn3c2)cc1=O (centres unmarked) [Example 99, N-(3-((2,3-dihydro-1H-inden-2-yl)amino)-2-hydroxypropyl)-6-(1-methyl-2-oxo-1,2-dihydropyridin-4-yl)imidazo[1,2-a]pyridine-2-carboxamide] |  | 0.01 to 1 | 0.01 to 1 |

More lines, main results first:

| IC50 [1] [µM] | IC50 (PRMT5/MEP50) [µM] | SMILES | GI50 (Z-138 cells) [µM] |
| --- | --- | --- | --- |
|  | 1 to 5 | Cc1cn2c(C)c(C(=O)NC[C@H](O)CN3CCc4ccccc4C3)nc2cn1 [Example 55, (S)—N-(3-(3,4-dihydroisoquinolin-2(1H)-yl)-2-hydroxypropyl)-3,6-dimethylimidazo[1,2-a]pyrazine-2-carboxamide] | 1 to 5 |
|  | 0.01 to 1 | Cn1cc(-c2cn3cc(C(=O)NC[C@H](O)CN4CCc5ccccc5C4)nc3cn2)ccc1=O [Example 51, (S)—N-(3-(3,4-dihydroisoquinolin-2(1H)-yl)-2-hydroxypropyl)-6-(1-methyl-6-oxo-1,6-dihydropyridin-3-yl)imidazo[1,2-a]pyrazine-2-carboxamide] | 0.01 to 1 |
|  | 0.01 to 1 | CN(C[C@H](O)CN1CCc2ccccc2C1)C(=O)c1cn2cc(C(F)(F)F)ncc2n1 [Example 89, (R)—N-(3-(3,4-dihydroisoquinolin-2(1H)-yl)-2-hydroxypropyl)-N-methyl-6-(trifluoromethyl)imidazo[1,2-a]pyrazine-2-carboxamide] | 0.01 to 1 |
|  | 1 to 5 | O=C(NC[C@H](O)CN1CCc2ccccc2C1)c1cn2cc(C3(O)COC3)ccc2n1 [Example 61, (S)—N-(3-(3,4-dihydroisoquinolin-2(1H)-yl)-2-hydroxypropyl)-6-(3-hydroxyoxetan-3-yl)imidazo[1,2-a]pyridine-2-carboxamide] | 1 to 5 |
|  | 0.01 to 1 | O=C(NC[C@H](O)[C@@H](O)CN1CCc2ccccc2C1)c1cn2cc(C(F)(F)F)ccc2n1 [Example 76, N-((2S,3S)-4-(3,4-dihydroisoquinolin-2(1H)-yl)-2,3-dihydroxybutyl)-6-(trifluoromethyl)imidazo[1,2-a]pyridine-2-carboxamide] | 0.01 to 1 |
|  | 0.01 to 1 | O=C(NC[C@H](O)CN1CCc2ccccc2C1)c1cn2cc(-c3ccc(Cl)cn3)ccc2n1 [Example 33, (S)-6-(5-chloropyridin-2-yl)-N-(3-(3,4-dihydroisoquinolin-2(1H)-yl)-2-hydroxypropyl)imidazo[1,2-a]pyridine-2-carboxamide] | 0.01 to 1 |
|  | 1 to 5 | O=C(NC[C@H](O)CN1CCc2ccccc2C1)c1cn2cc(N3CC(F)(F)C3)ccc2n1 [Example 59, (S)-6-(3,3-difluoroazetidin-1-yl)-N-(3-(3,4-dihydroisoquinolin-2(1H)-yl)-2-hydroxypropyl)imidazo[1,2-a]pyridine-2-carboxamide] | 1 to 5 |
|  | 0.01 to 1 | Cc1ncc(-c2ccc3nc(C(=O)NC[C@H](O)CN4CCc5ccccc5C4)cn3c2)cn1 [Example 28, (S)—N-(3-(3,4-dihydroisoquinolin-2(1H)-yl)-2-hydroxypropyl)-6-(2-methylpyrimidin-5-yl)imidazo[1,2-a]pyridine-2-carboxamide] | 0.01 to 1 |
|  | 1 to 5 | Cc1c(C(=O)NC[C@H](O)CN2CCc3ccccc3C2)nc2ccc(C(F)(F)F)nn12 [Example 54, (S)—N-(3-(3,4-dihydroisoquinolin-2(1H)-yl)-2-hydroxypropyl)-3-methyl-6-(trifluoromethyl)imidazo[1,2-b]pyridazine-2-carboxamide] | 1 to 5 |
